The source of these data is US20250059162A1, “MULTI-PROTEIN DEGRADATION AGENT HAVING IMIDE SKELETON” (SUZHOU KINTOR PHARMACEUTICALS, INC., priority 2021, published 2025).

In the experiment the test system is HL60 cells. The experiment is described as follows: Anti-proliferation on HL60 cells (CellTiter-Glo, 3 days). In kind it is cell-based. As to conditions: Homo sapiens, HL-60, 72 h, 3 days incubation, CTG luminescence, IC50 by XLfit, read-out: HL60 cells Proliferation inhibitory activity. On the procedure:
HL60 cells (Cell Bank of Chinese Academy of Sciences) in the logarithmic growth phase were counted and plated evenly in a 96-well transparent bottom white plate at 20000 cells per well and 100 μL per well.
A certain amount of the compound of the present invention was weighed and diluted with DMSO to a 10 mM stock solution. The culture medium RPMI-1640 (meilunbio, MA0215) corresponding to the cells were taken, and the compound was diluted to the concentration required by the test, shaken gently and mixed evenly. 50 μL of the gradient dilution of the diluted compound was added to each well of the plated cells, and 50 μL of 0.1% DMSO was added to the control group. The plate was shaken gently, mixed evenly and incubated in a cell culture incubator for 3 days.
• 3.1 The CellTiter-Glo™ (CTG) (purchased from Promega, Cat. No. G9242) reagent was taken in advance from the −20° C. refrigerator and equilibrated to room temperature in the dark. Cell Titer-Glo buffer and Cell Titer-Glo substrate were mixed at a ratio of 1:1 to prepare a CTG detection reagent. • 3.2 The 96-well plate was taken out and inspected under a microscope for growth. • 3.3 The bottom of the 96-well plate was tagged with white paper, and then the plate was wrapped with tin foil paper, shaken at 37° C. at 300 r for 10 min and mixed evenly. • 3.4. 50 μL of CTG detection reagent was added to each well, Luminescence signal was detected using a microplate reader Biotek Synergy Hi, and the inhibition rate was calculated. IC50 values of the compounds were calculated by XLfit 5.5.0 software to evaluate the proliferation inhibitory activity on HL60 cells.
As to `O=C1CCC(NC(=O)c2ccc(CNCC3CCN(c4ncc(-c5cccc(Cl)c5)cc4C(F)(F)F)CC3)cn2)C(=O)N1` (stereo not shown) [Compound A156], the IC50 is 268 nM.
In the case of `COc1cccc(-c2cnc(N3CCC(F)(C(=O)NCc4ccc5c(c4)CN(C4CCC(=O)NC4=O)C5=O)CC3)c(F)c2)c1` (stereo not shown) [Compound A119] it was 1.09 nM; in that of `O=C1CCC(N2Cc3cc(C(=O)NCC4CCN(c5ccc(-c6cccc7cccnc67)nc5)CC4)ccc3C2=O)C(=O)N1` (stereo not shown) [Compound A44], 5 nM; in that of `O=C1CCC(N2Cc3cc(CNCC4CCN(c5ncc(-c6cccc(OC(F)(F)F)c6)cc5C(F)(F)F)CC4)ccc3C2=O)C(=O)N1` (stereo not shown) [Compound A96], 1.8 nM.
Under `COc1cccc(-c2cnc(N3CCC(F)(CNCc4ccc5c(c4)CN(C4CCC(=O)NC4=O)C5=O)CC3)c(C(F)(F)F)c2)c1` (stereo not shown) [Compound A121] stands 4.69 nM; under `N#CC1(CNCc2ccc3c(c2)CN(C2CCC(=O)NC2=O)C3=O)CCN(c2ncc(-c3cccc(Cl)c3)cc2C(F)(F)F)CC1` (stereo not shown) [Compound A89], 9.2 nM; under `O=C1CCC(N2Cc3cc(C(=O)NCC4CCN(c5ncc(-c6ccc7ccccc7c6)cn5)CC4)ccc3C2=O)C(=O)N1` (stereo not shown) [Compound A39], 2.6 nM.
In the case of `O=C1CC[C@H](N2Cc3cc(CNCC4CCN(c5ncc(-c6cccc(F)c6)cc5F)CC4)ccc3C2=O)C(=O)N1` [Compound A125] it was 2.48 nM.
With `O=C1CCC(N2Cc3cc(NC(=O)CC4CCN(c5cnc(-c6cccc7ccccc67)nc5)CC4)ccc3C2=O)C(=O)N1` (stereo not shown) [Compound A33], the IC50 worked out at 0.3 nM.
In the case of `O=C1CCC(NC(=O)Cc2ccc(CNCC3CCN(c4ncc(-c5cccc(Cl)c5)cc4C(F)(F)F)CC3)cc2)C(=O)N1` (stereo not shown) [Compound A167] it was 9580 nM; in that of `O=C1CCC(NC(=O)c2ccc(CNCC3CCN(c4ncc(-c5cccc(Cl)c5)cc4C(F)(F)F)CC3)c(Br)c2)C(=O)N1` (stereo not shown) [Compound A160], 1100 nM; in that of `O=C(CN1CCC(CC(=O)Nc2ccc3c(c2)CN(C2CCC(=O)NC2=O)C3=O)CC1)NCc1cccc2ccccc12` (stereo not shown) [Compound A5], 10 nM.
Under `O=C1CCC(N2Cc3cc(NC(=O)CC4CCN(c5ccc(-c6nccc7ccccc67)cn5)CC4)ccc3C2=O)C(=O)N1` (stereo not shown) [Compound A46] stands below 0.2 nM.
Regarding `O=C1CCC(n2cc(-c3ccc(CNCC4CCN(c5ncc(-c6cccc(Cl)c6)cc5C(F)(F)F)CC4)cc3)nn2)C(=O)N1` (stereo not shown) [Compound A168], the IC50 amounted to 109 nM.
Under `O=C1CCC(N2Cc3cc(C(=O)NCC4CCN(c5ncc(-c6cccc(Cl)c6)cn5)CC4)ccc3C2=O)C(=O)N1` (stereo not shown) [Compound A52] stands 1.4 nM.
Under `O=C1CCC(N2Cc3cc(CCCN4CCN(c5ncc(-c6cccc(Cl)c6)cc5C(F)(F)F)CC4)ccc3C2=O)C(=O)N1` (stereo not shown) [Compound A135] stands 25.7 nM; under `O=C1CCC(N2Cc3cc(NC(=O)CC4CCN(c5ncc(-c6ccccn6)cn5)CC4)ccc3C2=O)C(=O)N1` (stereo not shown) [Compound A59], 0.7 nM; under `O=C1CCC(N2Cc3cc(C(=O)NCC4CCN(c5ccc(-c6cccc7ccccc67)nc5)CC4)ccc3C2=O)C(=O)N1` (stereo not shown) [Compound A36], 0.3 nM.
`O=C1CCC(N2Cc3cc(CNCC4(F)CCN(c5ncc(-c6cccc(F)c6)cc5F)CC4)ccc3C2=O)C(=O)N1` (stereo not shown) [Compound A122]: the IC50 was 1.76 nM.
In the case of `O=C1CCC(N2Cc3cc(CNCC4CCN(c5ncc(-c6ccccn6)cc5F)CC4)ccc3C2=O)C(=O)N1` (stereo not shown) [Compound A106] it was 878 nM; in that of `O=C1CCC(N2Cc3cc(CNCC4CCN(c5ncc(-c6cccc(Cl)c6)cc5C(F)(F)F)CC4)ncc3C2=O)C(=O)N1` (stereo not shown) [Compound A142], 397 nM; in that of `O=C1CCC(N2Cc3cc(NC(=O)CC4CCN(CC(=O)N5CCCc6ccccc65)CC4)ccc3C2=O)C(=O)N1` (stereo not shown) [Compound A3], 7.9 nM.
In the case of `COc1cccc(-c2cnc(N3CCC(CCNc4ccc5c(c4)CN(C4CCC(=O)NC4=O)C5=O)CC3)c(C(F)(F)F)c2)c1` (stereo not shown) [Compound A132] it was 8.37 nM; in that of `CN(C)c1cc(-c2cccc(Cl)c2)cnc1N1CCC(CNCc2ccc3c(c2)CN(C2CCC(=O)NC2=O)C3=O)CC1` (stereo not shown) [Compound A79], below 0.2 nM.
In the case of `O=C1CCC(N2Cc3cc(CNCC4CCN(c5ncc(-c6cccc(Cl)c6)cc5F)CC4(F)F)ccc3C2=O)C(=O)N1` (stereo not shown) [Compound A88], the IC50 amounted to 0.8 nM.
In the case of `Cc1nc2ccc(CNCC3CCN(c4ncc(-c5cccc(Cl)c5)cc4C(F)(F)F)CC3)cc2c(=O)n1C1CCC(=O)NC1=O` (stereo not shown) [Compound A151] it was 687 nM; in that of `O=C1C[C@@H](N2Cc3cc(CNCC4CCN(c5ncc(-c6cccc(F)c6)cc5C(F)(F)F)CC4)ccc3C2=O)C(=O)N1` [Compound A173], 9370 nM.
In the case of `O=C1CCC(N2Cc3cc(CNCC4C5CCC4CN(c4ncc(-c6cccc(Cl)c6)cc4C(F)(F)F)C5)ccc3C2=O)C(=O)N1` (stereo not shown) [Compound A91] it was 36.1 nM; in that of `O=C1CCC(N2Cc3cc(C(=O)NCC4CCN(c5cc(-c6cccc7ccccc67)ccn5)CC4)ccc3C2=O)C(=O)N1` (stereo not shown) [Compound A16], 1.5 nM; in that of `CN(C)c1cccc(-c2cnc(N3CCC(CNCc4ccc5c(c4)CN(C4CCC(=O)NC4=O)C5=O)CC3)c(C(F)(F)F)c2)c1` (stereo not shown) [Compound A97], 0.4 nM.
Under `O=C1CCC(N2Cc3cc(CNCC4CCN(c5ncc(-c6cccc(Cl)c6)cc5C(F)F)CC4)ccc3C2=O)C(=O)N1` (stereo not shown) [Compound A118] stands 3.97 nM; under `O=C1CCC(N2Cc3cc(OCCC4CCN(c5ncc(-c6cccc(Cl)c6)cc5C(F)(F)F)CC4)ccc3C2=O)C(=O)N1` (stereo not shown) [Compound A133], 175 nM; under `O=C1CCC(N2Cc3cc(NC(=O)CC4CCN(c5cnc(-c6cccc7ccccc67)s5)CC4)ccc3C2=O)C(=O)N1` (stereo not shown) [Compound A25], 0.3 nM.
For the compound `O=C1CCC(N2Cc3cc(C(=O)NCC4CCN(C(=O)NCCn5c6ccccc6c6cccnc65)CC4)ccc3C2=O)C(=O)N1` (stereo not shown) [Compound A2], the IC50 stood at 58 nM.
Under `Cn1nc(N2CCC(=O)NC2=O)c2cc(CNCC3CCN(c4ncc(-c5cccc(Cl)c5)cc4C(F)(F)F)CC3)ccc21` [Compound A176] stands 5210 nM.
`COc1cc(Cl)cc(-c2cnc(N3CCC(CNCc4ccc5c(c4)CN(C4CCC(=O)NC4=O)C5=O)CC3)c(C(F)(F)F)c2)c1` (stereo not shown) [Compound A113]: the IC50 was found to be 3 nM.
In the case of `O=C1CCC(N2Cc3cc(NC(=O)CC4CCN(c5cccc(-c6cccc7ccccc67)c5)CC4)ccc3C2=O)C(=O)N1` (stereo not shown) [Compound A22] it was 4 nM.
Under `O=C1CCC(N2Cc3cc(CNCC4CCN(c5ccc(-c6cccc(Cl)c6)cc5C(F)(F)F)CC4)ccc3C2=O)C(=O)N1` (stereo not shown) [Compound A104] stands 20.5 nM.
Under `O=C1CCC(NCc2ccc(CNCC3CCN(c4ncc(-c5cccc(Cl)c5)cc4C(F)(F)F)CC3)cc2)C(=O)N1` (stereo not shown) [Compound A165] stands 9560 nM; under `Cn1nc(N2CCC(=O)NC2=O)c2ccc(CNCC3CCN(c4ncc(-c5cccc(Cl)c5)cc4C(F)(F)F)CC3)cc21` [Compound A177], 4350 nM.
As for `O=C1CCC(N2Cc3cc(NC(=O)CC4CCN(c5ccc(-c6cccc7ccccc67)cn5)CC4)ccc3C2=O)C(=O)N1` (stereo not shown) [Compound A35], the IC50 is below 0.2 nM.
Under `CC(C)c1cnc(N2CCC(CC(=O)Nc3ccc4c(c3)CN(C3CCC(=O)NC3=O)C4=O)CC2)nc1` (stereo not shown) [Compound A50] stands 0.6 nM.
On to `O=C1CCC(N2Cc3cc(C(=O)NCC4CCN(c5ncc(-c6cccc7ccccc67)o5)CC4)ccc3C2=O)C(=O)N1` (stereo not shown) [Compound A27], for which the IC50 was found to be 3.7 nM.
In the case of `O=C1CCC(n2nc3cc(CNCC4CCN(c5ncc(-c6cccc(F)c6)cc5F)CC4)ccn3c2=O)C(=O)N1` (stereo not shown) [Compound A147] it was 12300 nM; in that of `O=C1CC[C@H](N2Cc3cc(CNCC4(F)CCN(c5ncc(-c6cccc(Cl)c6)cc5C(F)(F)F)CC4)ccc3C2=O)C(=O)N1` [Compound A127], 6.75 nM.
Take `O=C1CCC(N2Cc3cc(NC(=O)CC4CCN(c5nccc(-c6cccc7ccccc67)n5)CC4)ccc3C2=O)C(=O)N1` (stereo not shown) [Compound A13]: the IC50 is 6.4 nM.
Under `O=C1CCC(NC(=O)c2ccc(CNCC3CCN(c4ncc(-c5cccc(Cl)c5)cc4C(F)(F)F)CC3)nc2)C(=O)N1` (stereo not shown) [Compound A157] stands 11700 nM.
Take `Cc1nc2cc(CNCC3CCN(c4ncc(-c5cccc(Cl)c5)cc4C(F)(F)F)CC3)ccc2c(=O)n1C1CCC(=O)NC1=O` (stereo not shown) [Compound A152]: the IC50 was 7320 nM.
Take `O=C1CCC(N2Cc3cc(CNCC4CCN(c5cc(F)c(-c6cccc(Cl)c6)cn5)CC4)ccc3C2=O)C(=O)N1` (stereo not shown) [Compound A101]: the IC50 turned out to be 10.9 nM.
Under `Cc1cccc(-c2cnc(N3CCC(CNCc4ccc5c(c4)CN([C@H]4CCC(=O)NC4=O)C5=O)CC3)c(C(F)(F)F)c2)c1` [Compound A123] stands below 3.04 nM; under `O=C1CCC(N2Cc3cc(NC(=O)CC4CCN(c5ncc(Br)cn5)CC4)ccc3C2=O)C(=O)N1` (stereo not shown) [Compound A48], 4.1 nM.
In the case of `O=C1CCC(N2Cc3cc(NC(=O)CC4CCN(c5ccc(-c6cccc(Cl)c6)cn5)CC4)ccc3C2=O)C(=O)N1` (stereo not shown) [Compound A56] it was below 0.2 nM.
